Test results from patent publication US12325700B2, “Crystal form S4 of the PLK4 inhibitor (1R,2S)-(e)-2-(3-(4-((cis-2,6-dimethylmorpholino)methyl)styryl)-1 h-imidazol-6-yl)-5′-methoxyspiro[cyclopropane-1,3′-indolin]-2′-one fumarate” (UNIVERSITY HEALTH NETWORK, priority 2019, dated 2025).
In brackets after ≈: the same amount, converted by molar mass. Where a name gives a salt, the structure may show the parent alone. Read-outs that look alike come from different tables or passages of the source.

What was measured:
[1] = Intrinsic dissolution rate at pH 2; type: physicochemical
[2] = In-vitro dissolution testing of tablets (oral dosage forms); type: physicochemical
Description: According to the FDA's guidance, in vitro dissolution testing of a drug substance in its oral dosage forms can be properly designed to establish an In Vivo-In Vitro Correlation (IVIVC), i.e., the correlation between an in-vitro property of a dosage form and an in-vivo response. With this guidance, two batches of fumarate containing crystal forms D and S4 were used to prepare tablets, to evaluate any impact on performance of the drug product. Each of the two batches of fumarate and excipients were individually sieved before weighing. The desired weight of each component was then transferred into a shaker mixer and blended. Tableting for the two batches was then performed using a single punch tablet press.
The performance of these tablets was then evaluated using a properly validated dissolution test method.

[3] = Dynamic vapor sorption (DVS) hygroscopicity measurement; type: physicochemical; settings: 25° C.
Description: Hygroscopicity measurements were performed by transferring about 10 mg of sample into a DVS instrument and subsequently recording the weight change with respect to the atmospheric humidity at 25° C. using the following parameters: […]

[4] = Equilibrium solubility in bio-relevant media at ambient temperature; type: physicochemical; settings: for solubility thermodynamic: thermodynamic from solid
Description: Also, equilibrium solubilities were measured in various bio-relevant media at ambient temperature.

[5] = human, in vivo
Description: Patients were dosed in clinical trials approved by Health Canada and the Research Ethics Board of the Hospital administering the drug. Eight patients were administered the form S4 tablets, six at a dose level of 48 mg and two at a dose level of 160 mg. 64 patients were administered the form D tablets at doses ranging from 3-160 mg.
Blood was collected for analysis prior to dosing and 2, 4, and 6 h after dosing. Briefly, using standard phlebotomy procedures, approximately 6 mL of blood was collected into a K3EDTA blood collection tube and then inverted 8-10 times to mix. The sample was then centrifuged at 1,000 g for 10-15 min at approximately 5° C. The plasma fraction of the blood was removed using a disposable pipette, transferred to a new tube, frozen at −70° C. and subsequently shipped on dry ice for analysis.
Levels of compound (I) were measured in plasma using a method validated in accordance to all applicable USFDA, OECD and MHLW regulations and the USFDA Guidance for Industry: Bioanalytical Method Validation May 2001. […] After evaporation of the extraction solvent, the sample extracts were reconstituted and analyzed by reversed-phase HPLC using a Waters Atlantis dC18. […] The ionized compounds were detected using MS/MS. […] Pharmacokinetic parameters were determined using the Excel add in “PK Functions” […]

| SMILES | Intrinsic dissolution rate [1] [μg/cm^2-min] | Dissolution Max ([2]; time 15) [%] | Dissolution Mean ([2]; time 15) [%] | Dissolution Min ([2]; time 15) [%] | Dissolution Max ([2]; time 30) [%] | Dissolution Mean ([2]; time 30) [%] | Dissolution Min ([2]; time 30) [%] | Dissolution Max ([2]; time 60 (60 min)) [%] | Dissolution Mean ([2]; time 60 (60 min)) [%] | Dissolution Min ([2]; time 60 (60 min)) [%] | weight gain at 80% RH [3] [%] | solubility thermodynamic ([4]; fasted state simulating gastric fluid (FaSSGF), fassgf or other biorelevant, fasted state simulating gastric fluid (FaSSGF), read-out: equilibrium solubility in FaSSGF) [µg/mL] | solubility thermodynamic ([4]; fasted state simulating intestinal fluid (FaSSIF), fassif, fasted state simulating intestinal fluid (FaSSIF), read-out: equilibrium solubility in FaSSIF) [µg/mL] | average dose-normalized exposure (AUC0-6 h divided by dose) [5] [ng·h/mL/mg] | equilibrium solubility in FaSSGF ([4]; fasted state simulating gastric fluid (FaSSGF)) [µg/mL] | equilibrium solubility in FaSSIF ([4]; fasted state simulating intestinal fluid (FaSSIF)) [µg/mL] |
| --- | --- | --- | --- | --- | --- | --- | --- | --- | --- | --- | --- | --- | --- | --- | --- | --- |
| COc1ccc2c(c1)[C@]1(C[C@H]1c1ccc3c(/C=C/c4ccc(CN5C[C@@H](C)O[C@@H](C)C5)cc4)n[nH]c3c1)C(=O)N2 [form D] | 440.4 | 64 | 63 | 61 | 86 | 83 | 81 | 98 | 94 | 92 | 0.56 | 2080 (≈ 3890 µM) | 80 (≈ 150 µM) |  |  |  |
| COc1ccc2c(c1)[C@]1(C[C@H]1c1ccc3c(/C=C/c4ccc(CN5C[C@@H](C)O[C@@H](C)C5)cc4)n[nH]c3c1)C(=O)N2 [form S4, (1R,2S)-(e)-2-(3-(4-((cis-2,6-dimethylmorpholino)methyl)styryl)-1 h-imidazol-6-yl)-5′-methoxyspiro[cyclopropane-1,3′-indolin]-2′-one fumarate] | 429.3 | 77 | 76 | 74 | 91 | 90 | 89 | 95 | 94 | 93 | 0.41 |  |  | 5.99 ± 2.48 | 2520 | 50 |
